One experiment concerns the target T1, HDAC8 (Homo sapiens, UniProt Q9BY41).
T1 sequence (Q9BY41 1-377): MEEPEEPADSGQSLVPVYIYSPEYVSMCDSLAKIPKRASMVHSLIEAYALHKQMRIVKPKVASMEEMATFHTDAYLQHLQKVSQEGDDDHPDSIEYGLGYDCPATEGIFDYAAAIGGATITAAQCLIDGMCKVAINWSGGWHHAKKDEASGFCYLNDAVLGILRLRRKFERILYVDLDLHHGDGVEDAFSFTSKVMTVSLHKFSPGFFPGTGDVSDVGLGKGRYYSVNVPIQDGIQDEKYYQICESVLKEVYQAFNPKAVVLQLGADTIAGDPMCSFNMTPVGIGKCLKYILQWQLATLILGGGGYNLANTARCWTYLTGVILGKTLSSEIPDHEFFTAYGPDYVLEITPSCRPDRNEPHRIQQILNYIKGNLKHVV
Briefly: HDAC biochemical activity measurement (fluorescent substrate deacetylation). As to conditions: 37° C. 30 minutes.

The target in a further experiment is HDAC1 (Homo sapiens, UniProt Q13547). The description is as above.
In experiment [1] the test system is HT1080 (human fibrosarcoma cells). In words: MTT cancer cell growth inhibition. Format: cell-based. As to conditions: Homo sapiens, HT-1080, 72 h, MTT. In a few lines:
(§1)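 Three-day compound exposure (final 10^−5–10^−10 M, three replicate wells) of cells seeded at 1500 per well precedes a 4 h MTT incubation at 37° C. Viability is taken from 570 nm absorbance after DMSO solubilisation, and GI50 calculated from it.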

The test system of experiment [2] is Hela (human cervical cancer cells). In words: MTT cancer cell growth inhibition. Type of experiment: cell-based. The settings on record: Homo sapiens, HeLa, 72 h, MTT. In a few lines: as §1
For experiment [3], the system named is BGC-823 (human gastric cancer cells). Briefly: MTT cancer cell growth inhibition. Type of experiment: cell-based. The settings on record: Homo sapiens, BGC-823, 72 h, MTT. In a few lines:
as §1

Experiment [4] has as its system KBM-5 (human chronic myelogenous leukemia). Briefly: MTT cancer cell growth inhibition. Format: cell-based. As to conditions: Homo sapiens, KBM5, 72 h, MTT, 72 hours incubation, KBM-5 cells; read-out: GI50 KBM-5. In a few lines:
as §1

Experiment [5] relates to N-87 (human gastric cancer cells). In words: MTT cancer cell growth inhibition. Format: cell-based. As to conditions: Homo sapiens, 72 h, MTT, 72 hours incubation, N-87 cells; read-out: GI50 N-87. An outline of the steps: as §1
The subject of experiment [6] is MDA-MB-231 (breast cancer cells). In words: MTT cancer cell growth inhibition. Type of experiment: cell-based. The settings on record: Homo sapiens, MDA-MB-231, 72 h, read-out: GI50 MDA-MB-231, MTT, 72 hours incubation, MDA-MB-231 cells. An outline of the steps:
as §1

The test system of experiment [7] is Huh-7 (human hepatoma cells). Briefly: MTT cancer cell growth inhibition. Type of experiment: cell-based. The settings on record: Homo sapiens, Huh-7, 72 h, MTT, 72 hours incubation, Huh-7 cells; read-out: GI50 Huh-7. An outline of the steps: as §1
Experiment [8] deals with KBM5-T315I (human chronic myelogenous leukemia). In words: MTT cancer cell growth inhibition. Type of experiment: cell-based. As to conditions: Homo sapiens, 72 h, MTT, 72 hours incubation, KBM5-T315I cells; read-out: GI50 KBM5-T315I. An outline of the steps:
as §1

Experiment [9] relates to SGC-7901 (human gastric cancer cells). Briefly: MTT cancer cell growth inhibition. Format: cell-based. As to conditions: Homo sapiens, SGC-7901, 72 h, MTT, 72 hours incubation, SGC-7901 cells; read-out: GI50 SGC-7901. An outline of the steps: as §1
The next experiment concerns the target T2, HDAC7 (Homo sapiens, UniProt Q8WUI4).
T2 sequence (Q8WUI4 1-952): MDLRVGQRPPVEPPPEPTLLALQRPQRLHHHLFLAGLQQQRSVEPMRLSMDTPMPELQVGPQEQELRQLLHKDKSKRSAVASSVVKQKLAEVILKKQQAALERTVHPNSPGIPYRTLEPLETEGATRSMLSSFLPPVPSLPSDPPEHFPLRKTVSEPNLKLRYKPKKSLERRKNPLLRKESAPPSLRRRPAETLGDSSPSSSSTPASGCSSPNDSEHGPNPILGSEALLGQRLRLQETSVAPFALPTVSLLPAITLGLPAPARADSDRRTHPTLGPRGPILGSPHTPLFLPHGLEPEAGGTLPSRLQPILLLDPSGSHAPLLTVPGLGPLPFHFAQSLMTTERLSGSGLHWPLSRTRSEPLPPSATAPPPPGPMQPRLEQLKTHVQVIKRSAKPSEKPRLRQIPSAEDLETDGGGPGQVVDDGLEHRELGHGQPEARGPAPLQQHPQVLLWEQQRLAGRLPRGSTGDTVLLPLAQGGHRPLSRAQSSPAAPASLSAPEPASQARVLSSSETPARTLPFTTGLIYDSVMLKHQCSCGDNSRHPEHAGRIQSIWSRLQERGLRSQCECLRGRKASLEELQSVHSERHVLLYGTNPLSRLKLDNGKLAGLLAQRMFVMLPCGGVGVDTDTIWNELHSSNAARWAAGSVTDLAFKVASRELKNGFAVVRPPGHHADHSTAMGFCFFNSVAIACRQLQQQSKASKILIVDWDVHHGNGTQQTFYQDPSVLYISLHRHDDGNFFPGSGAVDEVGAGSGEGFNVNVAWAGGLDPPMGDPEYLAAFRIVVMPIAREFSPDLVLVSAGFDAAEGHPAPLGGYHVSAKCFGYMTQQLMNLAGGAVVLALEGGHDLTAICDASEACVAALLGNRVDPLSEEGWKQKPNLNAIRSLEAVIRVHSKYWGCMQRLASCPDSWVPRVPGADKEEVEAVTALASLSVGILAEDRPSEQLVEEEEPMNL
Briefly: HDAC biochemical activity measurement (fluorescent substrate deacetylation). The settings on record: HDAC7; 37° C. 30 minutes.

The target in a further experiment is HDAC3 (Homo sapiens, UniProt O15379). The experiment is described as above.
The mark [10] stands for this setting: HDAC1, 37° C. 30 minutes, read-out: IC50 HDAC1.
Setting [11] is: 72 hours incubation, read-out: GI50 HT1.
[12] abbreviates: 72 hours incubation, read-out: GI50 Hela.
Where [13] appears, read: 72 hours incubation, read-out: GI50 BG.
[14] abbreviates: HT1080 cells, 72 hours incubation, read-out: GI50 HT1.
[15] abbreviates: Hela cells, 72 hours incubation, read-out: GI50 Hela.
The mark [16] stands for this setting: BGC-823 cells, 72 hours incubation, read-out: GI50 BG.
The mark [17] stands for this setting: read-out: IC50 HDAC3, HDAC3, 37° C. 30 minutes.

For orientation: IC50 means the point on the concentration scale where inhibition reaches its midpoint. What is called GI50 is the concentration that inhibits growth by half.

Like-named read-outs stand apart in the source and are kept apart here. Bounds are passed on as bounds.
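For IC50 HDAC1 in this document: fluorogenic acetyl-lysine substrate (20 µM) deacetylated by HDAC1, then developer releases fluorophore read at 360 nm excitation and 460 nm emission, inhibitor incubated 30 min at 37 °C.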
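For IC50 HDAC1, C (six-membered ring with substituents) in this document: fluorogenic acetyl-lysine substrate (20 µM) deacetylated by HDAC1, then developer releases fluorophore read at 360 nm excitation and 460 nm emission, inhibitor incubated 30 min at 37 °C.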
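For IC50 HDAC1, D (non-substituent) in this document: fluorogenic acetyl-lysine substrate (20 µM) deacetylated by HDAC1, then developer releases fluorophore read at 360 nm excitation and 460 nm emission, inhibitor incubated 30 min at 37 °C.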
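For IC50 HDAC1, a (compounds of the present invention) in this document: fluorogenic acetyl-lysine substrate (20 µM) deacetylated by HDAC1, then developer releases fluorophore read at 360 nm excitation and 460 nm emission, inhibitor incubated 30 min at 37 °C.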
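For IC50 HDAC7 in this document: fluorogenic deacetylation assay using acetyl-lysine substrate at 20 µM, enzyme and compound incubated 30 min at 37 °C, then developer added, fluorescence read at 360/460 nm.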

HDAC3, sequence (O15379 whole entry, species assumed): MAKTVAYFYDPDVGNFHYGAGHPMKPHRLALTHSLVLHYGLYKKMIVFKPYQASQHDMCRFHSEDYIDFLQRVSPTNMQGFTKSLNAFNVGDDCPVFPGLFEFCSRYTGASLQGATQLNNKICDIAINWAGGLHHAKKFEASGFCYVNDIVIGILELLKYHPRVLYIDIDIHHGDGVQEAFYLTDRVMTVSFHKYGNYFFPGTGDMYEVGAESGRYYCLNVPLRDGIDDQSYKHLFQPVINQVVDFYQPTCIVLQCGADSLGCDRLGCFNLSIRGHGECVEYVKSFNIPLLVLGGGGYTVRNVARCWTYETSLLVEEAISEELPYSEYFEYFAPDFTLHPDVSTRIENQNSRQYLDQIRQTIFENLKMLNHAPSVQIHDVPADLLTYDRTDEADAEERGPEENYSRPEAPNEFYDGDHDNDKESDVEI
HDAC3, sequence (Q9Y618 395-489 partner limits assumed, species assumed): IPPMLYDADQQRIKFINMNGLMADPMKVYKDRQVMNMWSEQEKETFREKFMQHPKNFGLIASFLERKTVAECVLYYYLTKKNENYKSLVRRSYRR
HDAC1, sequence (Q13547 whole entry, species assumed): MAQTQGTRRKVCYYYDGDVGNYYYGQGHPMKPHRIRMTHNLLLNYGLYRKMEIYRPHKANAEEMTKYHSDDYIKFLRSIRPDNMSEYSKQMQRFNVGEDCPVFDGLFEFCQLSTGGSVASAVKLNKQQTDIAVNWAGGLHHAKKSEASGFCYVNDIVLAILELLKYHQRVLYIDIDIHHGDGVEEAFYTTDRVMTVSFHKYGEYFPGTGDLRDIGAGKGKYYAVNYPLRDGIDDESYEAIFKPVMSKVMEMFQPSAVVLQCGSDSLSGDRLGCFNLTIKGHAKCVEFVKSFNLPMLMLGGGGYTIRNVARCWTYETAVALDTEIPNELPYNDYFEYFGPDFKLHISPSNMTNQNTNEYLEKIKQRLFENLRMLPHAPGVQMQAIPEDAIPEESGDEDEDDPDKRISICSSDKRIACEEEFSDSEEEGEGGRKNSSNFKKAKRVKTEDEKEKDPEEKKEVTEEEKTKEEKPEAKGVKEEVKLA

In the case of `C/C=C1\NC(=O)c2nccc(n2)CNC(=O)C[C@@H](/C=C/CCSC(C)=O)OC(=O)[C@H](C)NC1=O` [Example 24], the IC50 worked out at 63 nM at HDAC8, 74 nM at HDAC1 (setting [10]) and 43 nM against HDAC3. Further, the GI50 is 40 nM in experiment [1] (setting [11]); 500 nM in experiment [2] (setting [12]); 220 nM in experiment [3] (setting [13]); 68 nM in [4]; 35 nM in experiment [5]; 86 nM in experiment [6]. The GI50 in experiment [7] is 51 nM; in [8], 35 nM; in [9] it was 18 nM. Also, the “IC50 HDAC7” value against HDAC7 is “no activity”.
`C/C=C1\NC(=O)c2ccc(F)c(n2)CNC(=O)C[C@@H](/C=C/CCSC(=O)CCCCCCC)OC(=O)[C@H](C)NC1=O` [Example 62]: the IC50 on HDAC8 came to 37 nM; at HDAC1 (setting [10]), 46 nM; against HDAC3, 37 nM. In addition, the GI50 in [1] (setting [11]) worked out at 80 nM; in [2] (setting [12]) it was 90 nM; in experiment [3] (setting [13]), 60 nM; in [4], 91 nM; in [5] it was 64 nM; in experiment [6] it was 31 nM. Also, the GI50 in [7] stood at 31 nM; in experiment [8] it was 64 nM; in experiment [9], 46 nM. For the same compound, the “IC50 HDAC7” value against HDAC7 was “no activity”.
As to `C/C=C1\NC(=O)c2cccc(n2)CNC(=O)C[C@@H](/C=C/CCSC(=O)CCCCCCC)OC(=O)[C@@H](C)NC1=O` [Compound 236], the IC50 at HDAC8 is 67 nM; on HDAC1 (setting [10]), 43 nM; on HDAC1 (Table 2, read-out: IC50 HDAC1, a (compounds of the present invention)), under 50 nM; at HDAC3 (setting [17]), 66 nM. Besides, the GI50 in experiment [1] (setting [14]) was 190 nM; in experiment [1] (72 hours, present invention, read-out: GI50 HT1080, a) it was 197 nM; in experiment [2] (setting [15]), 810 nM; in [2] (72 hours, present invention, read-out: GI50 Hela, a) it was 810 nM; in experiment [3] (setting [16]) it was 90 nM; in experiment [3] (72 hours, present invention, read-out: GI50 BGC823, a) it was 93 nM. Also, the GI50 in [4] worked out at 33 nM; in experiment [5], 26 nM; in experiment [6] it was 17 nM; in experiment [7], 67 nM; in [8], 53 nM; in experiment [9], 48 nM. Further, the “IC50 HDAC7” value at HDAC7 is reported as “no activity”.
On to `C/C=C1\NC(=O)c2cccc(n2)CNC(=O)C[C@@H](/C=C/CCSC(C)=O)OC(=O)[C@H](Cc2ccccc2)NC1=O` [Compound 13], for which the IC50 is 159 nM at HDAC8; 187 nM at HDAC1 (setting [10]); 187 nM on HDAC1 (Table 3, read-out: IC50 HDAC1, D (non-substituent)); 337 nM on HDAC3 (setting [17]). For the same compound, the GI50 in experiment [1] (setting [11]) is 200 nM; in experiment [2] (setting [12]), 90 nM; in experiment [3] (setting [13]) it was 100 nM; in experiment [4], 84 nM; in [5], 31 nM; in [6], 81 nM. The GI50 was 85 nM in experiment [7], 11 nM in [8] and 42 nM in experiment [9]. Besides, the “IC50 HDAC7” value against HDAC7 is reported as “no activity”.
Take `C/C=C1\NC(=O)c2cc(SC)cc(n2)CNC(=O)C[C@@H](/C=C/CCSC(=O)CCCCCC)OC(=O)[C@H](C(C)C)NC1=O` [Compound 151]: the IC50 was 38 nM against HDAC8, 61 nM on HDAC1 (setting [10]) and 23 nM at HDAC3. Further, the GI50 was 90 nM in experiment [1] (setting [14]); 70 nM in experiment [2] (setting [15]); 40 nM in experiment [3] (setting [16]); 31 nM in experiment [4]; 46 nM in experiment [5]; 37 nM in experiment [6]. Also, the values for the GI50 in [7], in experiment [8] and in [9] were 35 nM, 22 nM and 36 nM, respectively. In addition, the “IC50 HDAC7” value at HDAC7 is on record as “no activity”.
Turning to `C/C=C1\NC(=O)c2cc(F)cc(n2)CNC(=O)C[C@@H](/C=C/CCSC(=O)CCCC)OC(=O)[C@H](C(C)C)NC1=O` [Compound 40], the IC50 against HDAC8 was 45 nM; at HDAC1 (setting [10]), 43 nM; on HDAC1 (Table 3, column C, read-out: IC50 HDAC1, C (six-membered ring with substituents)), 43 nM; on HDAC3 (setting [17]) it was 42 nM. The GI50 in experiment [1] (setting [11]) stood at 70 nM; in [2] (setting [12]), 70 nM; in experiment [3] (setting [13]) it was 70 nM; in experiment [4] it was 79 nM; in experiment [5] it was 71 nM; in experiment [6], 35 nM. Moreover, the GI50 was 35 nM in experiment [7], 55 nM in experiment [8] and 45 nM in [9]. Moreover, at HDAC7, the “IC50 HDAC7” value is listed as “no activity”.
As to `C/C=C1\NC(=O)c2ccc(F)c(n2)CNC(=O)C[C@@H](/C=C/CCSC(=O)CCCCCCC)OC(=O)[C@H](Cc2ccccc2)NC1=O` [Example 71], the IC50 against HDAC8 was 41 nM; at HDAC1 (setting [10]), 51 nM; against HDAC3, 34 nM. Further, the GI50 was found to be 80 nM in experiment [1] (setting [11]); 70 nM in [2] (setting [12]); 50 nM in experiment [3] (setting [13]); 73 nM in experiment [4]; 55 nM in experiment [5]; 29 nM in experiment [6]. Besides, the GI50 came to 29 nM in experiment [7], 28 nM in experiment [8] and 35 nM in [9]. The “IC50 HDAC7” value at HDAC7 is listed as “no activity”.
On to `C/C=C1\NC(=O)c2nc(ccc2F)CNC(=O)C[C@@H](/C=C/CCSC(=O)CCCCCCC)OC(=O)[C@H](C)NC1=O` [Example 60], for which the IC50 against HDAC8 is 53 nM; at HDAC1 (setting [10]), 81 nM; on HDAC3, 16 nM. Also, the GI50 in experiment [1] (setting [11]) stood at 50 nM; in experiment [2] (setting [12]), 70 nM; in [3] (setting [13]) it was 60 nM; in [4], 74 nM; in experiment [5] it was 63 nM; in experiment [6], 19 nM. In addition, the GI50 in experiment [7] worked out at 19 nM; in experiment [8], 83 nM; in experiment [9] it was 43 nM. Moreover, the “IC50 HDAC7” value on HDAC7 is given as “no activity”.

The record behind these values is US10065990B2, “Cyclic peptide compound, and preparation method, pharmaceutical composition and use thereof” (HANGZHOU GUANYU BIO-MEDICAL CO., LTD, priority 2013, dated 2018).
